The values that follow come from US6475751B2, “Scintillation proximity assay for type II fatty acid biosynthetic enzymes” (Virginia Commonwealth University, priority 2000, dated 2002).

Like-named read-outs stand apart in the source and are kept apart here.

Broadly, the Km is the concentration of substrate that gives half-maximal velocity. What is called IC50 is the concentration that inhibits the measured activity by half. Read a low IC50 as higher potency.

Series [1] has as its target T1, S. glaucescens His6-KASIII (Streptomyces glaucescens, UniProt Q54206).
T1 construct: His6 (N); made in house; host or cells: Escherichia coli BL21 (DE3 pLysE)/pLH14
T1 sequence (Q54206 1-333): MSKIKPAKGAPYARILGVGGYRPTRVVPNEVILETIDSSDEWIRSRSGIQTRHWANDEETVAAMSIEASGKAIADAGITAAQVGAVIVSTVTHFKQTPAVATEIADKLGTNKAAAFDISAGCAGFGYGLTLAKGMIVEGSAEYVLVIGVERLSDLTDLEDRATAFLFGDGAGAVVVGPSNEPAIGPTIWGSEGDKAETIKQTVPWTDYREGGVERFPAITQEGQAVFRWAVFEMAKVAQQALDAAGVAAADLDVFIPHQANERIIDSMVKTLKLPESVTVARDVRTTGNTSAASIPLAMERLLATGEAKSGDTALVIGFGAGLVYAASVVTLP
Nature of the series: KASIII TCA precipitation assay. The class given is biochemical. The method, then: (§1) The standard reaction mixture contained the following components in a final volume of […]: S. glaucescens His6-KASIII […], 100 mM imidazole, pH 7.0, 2.6 μM BMACP (MACP), [^3H] acetyl-CoA 0.6 μM (0.24 μCi, specific activity 20 Ci/mmol). The reaction was initiated by adding [^3H] acetyl-CoA and incubated at 30 ° C. for 10 minutes.
(§2) In the KASIII TCA precipitation assay, the reaction was quenched by the addition of 200 μl ice cold 10% TCA, incubated on ice for 10 min and centrifuged at 13,000 g for 10 min. The supernatant was discarded and the pellet was resuspended with another 200 μl of cold TCA and centrifuged. The pellet bound ^3H labeled product was dissolved in 2% SDS, 20 mM NaOH and quantitated by liquid scintillation counting. The Escherichia coli KASIII assay was performed in the same manner except that the incubation time was reduced to 2 minutes, and 0.13 μg of protein and 0.4 μM MACP (BMACP) were used in the assay.
In all inhibitor studies, the inhibitor was first dissolved in DMSO and preincubated with enzyme for 15 minutes at 23° C., prior to addition of substrate. The final DMSO concentration in each of these assays remained below 1%. […]

The target in series [2] is T2, E. coli KASIII (Escherichia coli, UniProt P0A6R0). Kind of series: KASIII scintillation proximity assay (SPA). The class given is biochemical. The method, then:
as §1
(§3) For the KASIII SPA, the reaction was terminated by the sequential addition of 100 μl of 100% ethanol (which denatures the KASIII) and 50 μl of the SPA bead solution (10 mg/ml). The mixture was then incubated for 2 hr at 23° C. with gentle shaking. After allowing the beads to settle the sealed OptiPlate (Packard, Meriden, Conn.) was counted using a TopCount (Packard) set up in SPA mode. A background signal was obtained by carrying out the assay in absence of KASIII. This background signal was subtracted from KASIII SPA signals.
In the KASIII TCA precipitation assay, the reaction was quenched by the addition of 200 μl ice cold 10% TCA, incubated on ice for 10 min and centrifuged at 13,000 g for 10 min. The supernatant was discarded and the pellet was resuspended with another 200 μl of cold TCA and centrifuged. The pellet bound ^3H labeled product was dissolved in 2% SDS, 20 mM NaOH and quantitated by liquid scintillation counting. […]
(In a scintillation proximity assay essentially only radioactivity close to the scintillant gives light.)

The target of series [3] is T2, E. coli KASIII. Nature of the series: KASIII TCA precipitation assay. Type of series: biochemical. As for the experimental part:
as §1, §2
(§4) In all inhibitor studies, the inhibitor was first dissolved in DMSO and preincubated with enzyme for 15 minutes at 23° C., prior to addition of substrate. The final DMSO concentration in each of these assays remained below 1%.

Series [4] addresses T1, S. glaucescens His6-KASIII. Kind of series: KASIII scintillation proximity assay (SPA). Type of series: biochemical. As for the experimental part:
as §1, §3, §4
The apparent Km for MACP with the S. glaucescens KASIII was determined using the standard TCA precipitation assay with the following modifications: tritiated acetyl-CoA at a final concentration of 13.3 μM (0.4 μCi, specific activity 1 Ci/mmol ) was incubated at 30° C. for 5 min with various concentrations of MACP (0.39-18.7 μM) in a volume of 30 μl. The apparent Km for BMACP with the S. glaucescens KASIII was determined in SPA format. Tritiated acetyl-CoA at a final concentration of 7.5 μM (0.6 μCi, specific activity 4 Ci/mmol) was incubated at 30° C. for 9 min with various BMACP concentrations (0.28 to 9 μM).

Series [5] concerns the target T1, S. glaucescens His6-KASIII. Conditions: cited from earlier work.

T2 sequence (P0A6R0 whole entry): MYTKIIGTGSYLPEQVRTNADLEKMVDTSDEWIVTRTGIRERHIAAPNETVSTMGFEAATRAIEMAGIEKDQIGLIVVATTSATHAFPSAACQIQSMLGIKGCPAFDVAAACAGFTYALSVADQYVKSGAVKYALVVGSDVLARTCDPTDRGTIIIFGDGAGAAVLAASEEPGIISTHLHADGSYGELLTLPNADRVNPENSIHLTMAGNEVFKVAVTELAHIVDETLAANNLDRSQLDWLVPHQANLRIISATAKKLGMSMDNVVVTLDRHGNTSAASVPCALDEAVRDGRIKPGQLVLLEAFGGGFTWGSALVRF

“MACP: Malonyl-Acyl Carrier Protein generated from Escherichia coli ACP and malonyl-CoA; KASIII substrate”: in series [1] (TCA-based assay, 13.3 μM tritiated acetyl-CoA, 30° C., 5 min, read-out: Km (apparent) for substrate), the Michaelis constant (Km) turned out to be 6.1 ± 0.4 µM. `C=C/C(C)=C/[C@@]1(C)SC(=O)C(C)=C1O` [thiolactomycin]: the IC50 in series [2] worked out at 124 ± 14 µM; in series [3], 160 ± 14 µM. With “BMACP: Biotinylated Malonyl-Acyl Carrier Protein, prepared by biotinylation of MACP using NHS-biotin; KASIII substrate”, the Km is 7.2 ± 2.6 µM in series [4] (SPA format, 7.5 μM tritiated acetyl-CoA, 30° C., 9 min, read-out: Km (apparent) for substrate) and 3.7 µM in series [5] (previously determined using a TCA precipitation assay, read-out: Km previously determined). As to `NC(=O)CI` [iodoacetamide, Iodoacetamide, reference compound], the IC50 in series [4] is 15 ± 1 µM; in series [1] (TCA precipitation assay, inhibitor preincubated with enzyme 15 minutes at 23° C.), 25 ± 3 µM.

For the compound `CC(=O)SCCNC(=O)CCNC(=O)[C@H](O)C(C)(C)COP(=O)(O)OP(=O)(O)OC[C@H]1O[C@@H](n2cnc3c(N)ncnc32)[C@H](O)[C@@H]1OP(=O)(O)O` [acetyl-CoA], the Km in series [4] (SPA, suggested by linear relationship over 0-1.6 μM substrate, read-out: Km for acetyl-CoA) was over 1.6 µM; in series [5] (previous analyses using a TCA-precipitation assay, read-out: Km for acetyl-CoA) it was 3 µM.

In the case of `C[S+](C)[O-]` [DMSO, Dimethyl Sulfoxide], in series [4] (DMSO concentration of 10% v/v), the “reduction in the SPA signal” value is given as about 50%. For the same compound, in series [4] (DMSO concentrations below 1.5% v/v), the “decrease in the SPA signal” value is given as “no significant decrease”.
